Article PMC4585333, “Novel Regulator of Acylated Ghrelin, CF801, Reduces Weight Gain, Rebound Feeding after a Fast, and Adiposity in Mice” (Frontiers in Endocrinology, 2015)
Entries after “also recorded” stand apart in the source; their conditions may differ.

What was measured:
human GOAT (hGOAT) = target: T1, human GOAT (hGOAT) (Homo sapiens, UniProt Q96T53); assay: Fluorescence-based GOAT activity assay, human GOAT; assay type: biochemical; conditions: concentrations up to 10 μM; Sf9 membranes, 1.5 μM GSSFLCAcDan, 500 μM octanoyl-CoA, 30 min pre-incubation, 1 h room temperature, pH 7.0, HPLC fluorescence, triplicate; F(3,8) = 1.251, p > 0.05
T1 construct: made in house; host or cells: Sf9 insect cells (membrane fraction)
T1 sequence (Q96T53 1-435): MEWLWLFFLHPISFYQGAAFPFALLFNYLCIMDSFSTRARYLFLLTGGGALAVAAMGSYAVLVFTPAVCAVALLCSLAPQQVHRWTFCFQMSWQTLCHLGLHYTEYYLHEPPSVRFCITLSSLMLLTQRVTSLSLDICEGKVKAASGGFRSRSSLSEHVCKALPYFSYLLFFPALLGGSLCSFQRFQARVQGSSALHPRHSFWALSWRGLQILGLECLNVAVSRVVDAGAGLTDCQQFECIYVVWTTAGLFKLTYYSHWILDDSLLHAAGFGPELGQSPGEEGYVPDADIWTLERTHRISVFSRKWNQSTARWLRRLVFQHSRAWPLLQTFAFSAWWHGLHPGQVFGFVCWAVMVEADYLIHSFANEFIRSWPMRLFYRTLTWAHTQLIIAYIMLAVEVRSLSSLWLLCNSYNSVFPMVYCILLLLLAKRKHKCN
Source text: (§1) The effects of CF801 on GOAT activity were examined using a previously validated fluorescence-based assay, and in comparison with octanoyl-(Dap3)-ghrelin (1–5)–NH2, a well characterized GOAT inhibitor ([56], [63]). In this assay, membrane fractions from Sf9 insect cells were transfected to express either human (hGOAT) or mouse GOAT (mGOAT). Membranes fractions were thawed on ice and passed through an 18-gage needle 10 times enriched using a previously described method ([63]). […] Assays were analyzed by reverse phase HPLC with fluorescence detection. […] The trials were run in triplicate, with the % activity calculated as the integrated fluorescence intensity of the octanoylated product in the CF801 or octanoyl-(Dap3)-ghrelin (1–5)–NH2 run normalized by the same quantity for the vehicle-only reaction. […]
(§2) Figure 3 Percent activity of human GOAT (A) and mouse GOAT (B) (obtained from membrane fractions from Sf9 cells expressing hGOAT and mGOAT, resepectively) when exposed to CF801 and octanoyl-(Dap3)-ghrelin (1–5)–NH2 using a fluorescence-based microsomal assay. GSSFLCAcDan was used as an acylation target with fluorescence measured by reverse phase HPLC with fluorescence detection. […] All values are expressed as mean ± SEM. ***p < 0.001 compared to vehicle control.

[1] = Blood glucose in trunk blood; assay type: in vivo, male C57BL/6J mice; conditions: after 4 days i.p. treatment, fast and refeeding, F(1,15) = 1.105, p > 0.05
Procedure: Mice (n = 16) were singly housed and given free access to water and regular chow for a 4-day baseline period. After this, mice were assigned to one of three groups: vehicle (n = 5), CF801 low dose (n = 5; 11 μmol⋅kg^−1 – LD), or CF801 high dose (n = 6; 22 μmol⋅kg^−1 – HD). These mice were injected intraperitoneally once a day for 4 days starting at 10:00 a.m. Following 4 days of treatment, animals were tested for rebound feeding after a fast. To do this, we removed the food from each cage 1 h before lights out (6:00 p.m.), and food was returned to the cage the following day 1 h after the last injection. Food intake was then monitored every hour for 4 h to determine the effects of CF801 on rebound feeding. Animals were then sacrificed by rapid decapitation to collect trunk blood and other tissues. Two samples were lost during sample collection, so the number of samples used to measure acylated ghrelin was reduced to n = 14.
Following the treatment or recovery periods, mice were killed by rapid decapitation and plasma and tissue samples were collected. To measure glucose levels, glucose strips attached to a Contour glucose meter (Bayer Corp., Pittsburgh, PA, USA) were dipped in trunk blood collected before being centrifuged. […] Plasma acylated ghrelin for all animals was measured using an ELISA kit (Millipore).

mouse GOAT (mGOAT) = target: T2, mouse GOAT (mGOAT) (Mus musculus, UniProt P0C7A3); assay: Fluorescence-based GOAT activity assay, mouse GOAT; assay type: biochemical; conditions: concentrations up to 10 μM; Sf9 membranes, 1.5 μM GSSFLCAcDan, 500 μM octanoyl-CoA, 30 min pre-incubation, 1 h room temperature, pH 7.0, HPLC fluorescence, triplicate; F(3,8) = 0.139, p > 0.05
T2 construct: made in house; host or cells: Sf9 insect cells (membrane fraction)
T2 sequence (P0C7A3 1-435): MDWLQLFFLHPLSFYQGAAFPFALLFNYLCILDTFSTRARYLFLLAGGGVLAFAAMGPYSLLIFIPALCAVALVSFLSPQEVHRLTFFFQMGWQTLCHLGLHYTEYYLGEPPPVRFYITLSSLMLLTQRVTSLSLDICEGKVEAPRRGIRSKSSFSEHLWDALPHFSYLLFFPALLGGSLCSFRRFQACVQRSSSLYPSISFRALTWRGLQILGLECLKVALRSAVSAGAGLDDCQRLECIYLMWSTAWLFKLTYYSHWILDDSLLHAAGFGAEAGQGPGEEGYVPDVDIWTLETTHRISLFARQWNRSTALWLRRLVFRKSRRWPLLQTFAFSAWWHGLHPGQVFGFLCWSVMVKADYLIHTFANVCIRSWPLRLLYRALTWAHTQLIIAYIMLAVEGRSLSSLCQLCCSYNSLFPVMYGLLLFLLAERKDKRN
Source text: as §1, §2

GSAFLSPEHQRK KRRQRRR-NH2 [CF801]
hGOAT activity with CF801 (human GOAT (hGOAT)): no inhibition was seen; also recorded: no effect
blood glucose concentrations [1]: No significant differences
mGOAT activity with CF801 (mouse GOAT (mGOAT)): no inhibition was seen; also recorded: no effect
